The source of these data is US7968558B2, “Amidine derivatives of 2-heteroaryl-quinazolines and quinolines; potent analgesics and anti-inflammatory agents” (Rottapharm S.p.A., priority 2006, dated 2011).

The term IC50 denotes the midpoint of a concentration-inhibition curve.

Like-named read-outs stand apart in the source and are kept apart here.

Test [1] relates to IL-1β induced PGE2 production. In words: PGE2 production induced by IL-1β in chondrocyte cell culture. The class given is cell-based, rabbit. To be noted: Oryctolagus cuniculus, Chondrocyte, read-out: Effects on PGE2 production in rabbit Chondrocyte culture, IC50. An excerpt: Conversely, compounds of the invention are able to inhibit, at micromolar concentration, IL-1β induced PGE2 production in cellular systems. This inhibition effect on the production of the pro-inflammatory mediator PGE2, instead of to be ascribed to a direct COX-2 inhibition, as happens with Celecoxib and other COX-2 inhibitors, is in this case due to inhibition of cytokine induced COX-2 expression as proven in cellular systems.
Effectiveness in inhibition of PGE2 production induced by IL-1β in chondrocyte cell culture, as well as inhibition in IL-1β induced COX-2 expression in SW1353 human chondrosarcoma cell line, is summarized in Table 2, for representative compounds of the invention.

The subject of test [2] is Zymosan induced paw volume increase. In words: Zymosan-induced paw oedema. Type of test: in vivo, rat. To be noted: oral. Here is the method:
The interplantar injection of Zymosan-induced mechanical hyperalgesia was used as a model of inflammatory pain (Meller, Neuropharmacology, 1994, 33, 1471-1478). In this model, typically a male Sprague-Dawley or Wistar rat (200-250 g) receives an interplantar injection of 3 mg/100 μl zymosan into one hind paw. A marked inflammation occurs in this hind paw. Drugs are administered orally for evaluation of efficacy, 30 min. before the inflammatory insult. The hyperalgesia induced by zymosan administration was evaluated using the Randall-Selitto method (Arch. Int. Pharmacodyn., 1957, 111, 409). The quantitation of the analgesic effect is achieved by an analgesimeter, which consist in applying to the inflamed paw an increasing weight (from 130-140 g up to 500 g). The difference in the mechanical pain threshold between the basal value (generally 230-250 g) and the one tolerated by the animals treated with the drug, determined 4 hours after the inflammatory challenge, is defined as mechanical hyperalgesia.
Mechanical hyperalgesia is expressed for the compounds of the invention as ED50, which is the dose of the administered compound able to increase the pain threshold by 50% in comparison with the group of control animals. The corresponding ED100, representing the dose able of reducing of 100% the pain threshold, can be calculated for those cases where there is a linear dose-response relationship. In vivo anti-inflammatory effect exerted by the compound of the invention can be assessed in the same Zymosan induced inflammation test described above, by measuring the volume of the oedema induced by the inflammatory agent. The oedema was evaluated as the increase in the volume of the Zymosan injected paw within a time of 0-2 hrs. The measurements of the variation of the oedema volume of the paw were recorded using hydroplethysmometer, which consists of two plastic cuvettes containing a surfactant liquid, the larger one being used for immersion of the paw, connected to the smaller one which contains a trans-ducer capable of recording small displacements of the volume used for the measure. The paw is immersed in the cuvettes up to the tibiotarsal joint. The volume of the liquid displaced is proportional to the extent of the inflammation. The efficacy of the compounds of the invention in preventing oedema formation is expressed as ED30, and is measured 2 hours after the inflammatory challenge, and represents the dose able of reducing of 30%, the Zymosan induced paw volume increase in comparison to control animals (animals treated with Zymosan but treated with only distilled water instead of the testing compound). The corresponding ED50, representing the dose able of reducing of 50% the zymosan induced paw volume increase, can be calculated for those cases where there is a linear dose-response relationship.
In both the experiments, for each test compound, at least three doses were used, with 10 animals per group. Compounds of the invention were tested at 10, 20 and 40 mg/Kg.

Test [3] concerns mechanical hyperalgesia associated with STZ-induced diabetes. In words: STZ-induced diabetes mechanical hyperalgesia (neuropathic pain). The class given is in vivo, rat. Here is the method:
Streptozotocin (STZ)-induced diabetes in the rat has been increasingly used as a model of painful diabetic neuropathy to assess the efficacies of potential analgesic agents (C. Courteix, Pain 1993, 53, 81-8). The compounds of the invention were tested for efficacy in reducing mechanical hyperalgesia associated with STZ-induced diabetes in the rat, according to the experimental model as described by the literature. Diabetes was produced with the injection of a single dose (75 mg/Kg i.p.) of STZ. In the following four weeks after the induction of diabetes the clinical symptoms (weight, body and skin temperature, motility and hyperglycemia) progressively developed by the animals, are strictly monitored. After four weeks, the scores obtained in diabetic rats to various pain stimuli (in particular mechanical stimuli) were grater than those in normal rats, indicating hyperalgesia. The hyperalgesia induced by diabetes was evaluated using the Randall-Selitto method as above described, and quantitated using the analgesimeter. Also in this case, the difference in the mechanical pain threshold between the basal value (generally 230-250 g) and the one tolerated by the animals treated with the drug, is defined as mechanical hyperalgesia. The compounds of the invention were administered i.p. (solution, Tween 80, 10% in saline) at different doses, and mechanical hyperalgesia was measured at the reported time, as maximum percent effect (MPE) which represents the difference (%) in pain threshold between the animals treated with the drug and the controls that received only the vehicle, compared with the weight borne by naïf non-diabetic controls. A 100% protection means that the diabetic animals treated with the compound can tolerate the same stimulus (weight) as the naïf non-diabetic animals. MPE higher than 100% means that the diabetic animal treated with the compound can tolerate stimuli (weight) higher than the control non-diabetic animals (hypoalgesia).

Test [4] has as its system formalin-induced paw licking. Description: Formalin (licking) test. To be noted: Mus musculus, ip, 1 hour before formalin. The class given is in vivo, mice. Here is the method: The formalin test is increasingly used as a model of injury-produced pain (FV. Abbott, Pain, 1995, 60, 91-102). The procedure used for the evaluation of the compounds of the invention was similar to that reported by literature (S. Hunskaar, Pain, 1987, 30, 103-104), and consisted of the injection of 20 μl of 1% solution of formalin dissolved in distilled water, in the plantar surface of the right hind paw of the mice. Immediately, the animals were placed individually in an observation chamber. The amount of time that the animal spent licking the injected paw, considered indicative of pain, was recorded during 30 min. following formalin injection. The initial nociceptive scores normally peaked 5 min after formalin injection (early phase) and 15-30 min. after formalin injection (late phase), representing both the neurogenic and inflammatory pain responses respectively.
Animals were treated i.p. with an aqueous solution of the tested compound (doses: 3, 10, 30 mg/Kg), 1 hour before the formalin injection. Control animals received only the vehicle.
In Table 8, the analgesic effect elicited in this test by a representative compound of Formula (I), is expressed as ED50 both for the early and late phase, and compared with the performance of the standard reference, paracetamol.

Consider `CC(=N)Nc1ccc2nc(-c3ccc4c(c3)OCO4)ncc2c1` [Example 1, N-[2-(1,3-benzodioxol-5-yl)quinazolin-6-yl]acetamidine], for which, in test [1], the IC50 was 4.1 µM. The ED50 is 23.1 mg/kg in test [2] (Rattus norvegicus, calculated from linear dose-response, read-out: Oedema Reduction ED50); 19 mg/kg in test [4] (early phase, read-out: Analgesic effect ED50 (mg/Kg) Early phase); 13 mg/kg in test [4] (late phase, read-out: Analgesic effect ED50 (mg/Kg) Late phase). For the same compound, the “Oedema Reduction ED30” value in test [2] (2 hours after challenge) was 12.2 mg/kg. Also, the “MPE 0.5 hrs.” value worked out at 15% in test [3] (3 mg/Kg i.p.), 59% in test [3] (10 mg/Kg i.p.) and 110% in test [3] (30 mg/Kg i.p.). The “MPE 1.5 hrs.” value in test [3] (3 mg/Kg i.p.) stood at 30%; in test [3] (10 mg/Kg i.p.), 34%; in test [3] (30 mg/Kg i.p.), 137%. In addition, the “MPE 3 hrs.” value came out at 45% in test [3] (3 mg/Kg i.p.), 46% in test [3] (10 mg/Kg i.p.) and 101% in test [3] (30 mg/Kg i.p.).
